Test results reported in the supplement of paper PMC8671470.
Where a name gives a salt, the structure may show the parent alone.

tested on: BV-173; test: cell viability (% survival relative to DMSO control); higher = less cytotoxic; conditions: drug1 concentration 1 nM; drug2 concentration 5 nM; 72 h
Procedure: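 8x8 drug-combination matrices (0–5000 nM; rosiglitazone and lestaurtinib 0–1000 nM) were run in BV-173 cells for 72 h with CellTiter-Glo read-out. Survival is normalised to DMSO and 10 µM bortezomib and clipped at 100%.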

Q: `CN(CCOc1ccc(Cc2sc(O)nc2O)cc1)c1ccccn1` [Rosiglitazone] + CC(C)(Cc1ccccc1)NCC(O)c1ccc(O)c(NS(C)(=O)=O)c1 [Zinterol hydrochloride] was tested. Which cell viability did it give?
A: > 100%

Q: `CN(CCOc1ccc(Cc2sc(O)nc2O)cc1)c1ccccn1` [Rosiglitazone] + c1cc(-c2cnn3cc(-c4ccc(OCCN5CCCCC5)cc4)cnc23)ccn1 [Dorsomorphin] was tested. Which cell viability did it give?
A: > 100%

same assay, conditions: drug1 concentration 1 nM; drug2 concentration 10 nM; 72 h

Q: For `CN(CCOc1ccc(Cc2sc(O)nc2O)cc1)c1ccccn1` [Rosiglitazone] + CC(C)(Cc1ccccc1)NCC(O)c1ccc(O)c(NS(C)(=O)=O)c1 [Zinterol hydrochloride], which cell viability is on record?
A: > 100%

Q: Which cell viability does the source give for `CN(CCOc1ccc(Cc2sc(O)nc2O)cc1)c1ccccn1` [Rosiglitazone] + c1cc(-c2cnn3cc(-c4ccc(OCCN5CCCCC5)cc4)cnc23)ccn1 [Dorsomorphin] here?
A: > 100%

same assay, conditions: drug1 concentration 1 nM; drug2 concentration 50 nM; 72 h

Q: With `CN(CCOc1ccc(Cc2sc(O)nc2O)cc1)c1ccccn1` [Rosiglitazone] + CC(C)(Cc1ccccc1)NCC(O)c1ccc(O)c(NS(C)(=O)=O)c1 [Zinterol hydrochloride] as the molecule, how does the cell viability read?
A: 98.6%

Q: Which cell viability does the source give for `CN(CCOc1ccc(Cc2sc(O)nc2O)cc1)c1ccccn1` [Rosiglitazone] + c1cc(-c2cnn3cc(-c4ccc(OCCN5CCCCC5)cc4)cnc23)ccn1 [Dorsomorphin] here?
A: 58.5%

same assay, conditions: drug1 concentration 1 nM; drug2 concentration 100 nM; 72 h

Q: With `CN(CCOc1ccc(Cc2sc(O)nc2O)cc1)c1ccccn1` [Rosiglitazone] + CC(C)(Cc1ccccc1)NCC(O)c1ccc(O)c(NS(C)(=O)=O)c1 [Zinterol hydrochloride] as the molecule, how does the cell viability read?
A: > 100%

Q: With `CN(CCOc1ccc(Cc2sc(O)nc2O)cc1)c1ccccn1` [Rosiglitazone] + c1cc(-c2cnn3cc(-c4ccc(OCCN5CCCCC5)cc4)cnc23)ccn1 [Dorsomorphin] as the molecule, how does the cell viability read?
A: > 100%

same assay, conditions: drug1 concentration 1 nM; drug2 concentration 500 nM; 72 h

Q: Which cell viability does the source give for `CN(CCOc1ccc(Cc2sc(O)nc2O)cc1)c1ccccn1` [Rosiglitazone] + CC(C)(Cc1ccccc1)NCC(O)c1ccc(O)c(NS(C)(=O)=O)c1 [Zinterol hydrochloride] here?
A: > 100%

Q: Which cell viability does the source give for `CN(CCOc1ccc(Cc2sc(O)nc2O)cc1)c1ccccn1` [Rosiglitazone] + c1cc(-c2cnn3cc(-c4ccc(OCCN5CCCCC5)cc4)cnc23)ccn1 [Dorsomorphin] here?
A: > 100%

same assay, conditions: drug1 concentration 1 nM; drug2 concentration 1000 nM; 72 h

Q: Which cell viability does the source give for `CN(CCOc1ccc(Cc2sc(O)nc2O)cc1)c1ccccn1` [Rosiglitazone] + CC(C)(Cc1ccccc1)NCC(O)c1ccc(O)c(NS(C)(=O)=O)c1 [Zinterol hydrochloride] here?
A: > 100%

Q: `CN(CCOc1ccc(Cc2sc(O)nc2O)cc1)c1ccccn1` [Rosiglitazone] + c1cc(-c2cnn3cc(-c4ccc(OCCN5CCCCC5)cc4)cnc23)ccn1 [Dorsomorphin] was tested. Which cell viability did it give?
A: 91.7%

same assay, conditions: drug1 concentration 1 nM; drug2 concentration 5000 nM; 72 h

Q: For `CN(CCOc1ccc(Cc2sc(O)nc2O)cc1)c1ccccn1` [Rosiglitazone] + CC(C)(Cc1ccccc1)NCC(O)c1ccc(O)c(NS(C)(=O)=O)c1 [Zinterol hydrochloride], which cell viability is on record?
A: 94.8%

Q: Which cell viability does the source give for `CN(CCOc1ccc(Cc2sc(O)nc2O)cc1)c1ccccn1` [Rosiglitazone] + c1cc(-c2cnn3cc(-c4ccc(OCCN5CCCCC5)cc4)cnc23)ccn1 [Dorsomorphin] here?
A: 75.2%

same assay, conditions: drug1 concentration 5 nM; drug2 concentration 5 nM; 72 h

Q: Which cell viability does the source give for `O=C(O)CC[N+](=O)[O-]` [3-nitropropionic acid] + CCn1c(=Cc2cccc[n+]2CC)sc(=C2Sc3ccccc3N2C)c1=O [MKT 077] here?
A: 83.1%

Q: How did the cell viability turn out when `CCn1c(=Cc2cccc[n+]2CC)sc(=C2Sc3ccccc3N2C)c1=O` [MKT 077] + CN(C)CCNC(=O)c1cccn2c(=O)c3cc4ccccc4cc3nc12 [Bmh-21] was run?
A: 90.2%

Q: With `CN(CCOc1ccc(Cc2sc(O)nc2O)cc1)c1ccccn1` [Rosiglitazone] + CC(C)(Cc1ccccc1)NCC(O)c1ccc(O)c(NS(C)(=O)=O)c1 [Zinterol hydrochloride] as the molecule, how does the cell viability read?
A: > 100%

Q: With `CN(CCOc1ccc(Cc2sc(O)nc2O)cc1)c1ccccn1` [Rosiglitazone] + c1cc(-c2cnn3cc(-c4ccc(OCCN5CCCCC5)cc4)cnc23)ccn1 [Dorsomorphin] as the molecule, how does the cell viability read?
A: > 100%

same assay, conditions: drug1 concentration 5 nM; drug2 concentration 10 nM; 72 h

Q: For `O=C(O)CC[N+](=O)[O-]` [3-nitropropionic acid] + CCn1c(=Cc2cccc[n+]2CC)sc(=C2Sc3ccccc3N2C)c1=O [MKT 077], which cell viability is on record?
A: 97.8%

Q: `CCn1c(=Cc2cccc[n+]2CC)sc(=C2Sc3ccccc3N2C)c1=O` [MKT 077] + CN(C)CCNC(=O)c1cccn2c(=O)c3cc4ccccc4cc3nc12 [Bmh-21] was tested. Which cell viability did it give?
A: > 100%

Q: `CN(CCOc1ccc(Cc2sc(O)nc2O)cc1)c1ccccn1` [Rosiglitazone] + CC(C)(Cc1ccccc1)NCC(O)c1ccc(O)c(NS(C)(=O)=O)c1 [Zinterol hydrochloride] was tested. Which cell viability did it give?
A: 86.8%

Q: Which cell viability does the source give for `CN(CCOc1ccc(Cc2sc(O)nc2O)cc1)c1ccccn1` [Rosiglitazone] + c1cc(-c2cnn3cc(-c4ccc(OCCN5CCCCC5)cc4)cnc23)ccn1 [Dorsomorphin] here?
A: > 100%

same assay, conditions: drug1 concentration 5 nM; drug2 concentration 50 nM; 72 h

Q: How did the cell viability turn out when `O=C(O)CC[N+](=O)[O-]` [3-nitropropionic acid] + CCn1c(=Cc2cccc[n+]2CC)sc(=C2Sc3ccccc3N2C)c1=O [MKT 077] was run?
A: 93.3%

Q: Which cell viability does the source give for `CCn1c(=Cc2cccc[n+]2CC)sc(=C2Sc3ccccc3N2C)c1=O` [MKT 077] + CN(C)CCNC(=O)c1cccn2c(=O)c3cc4ccccc4cc3nc12 [Bmh-21] here?
A: > 100%

Q: `CN(CCOc1ccc(Cc2sc(O)nc2O)cc1)c1ccccn1` [Rosiglitazone] + CC(C)(Cc1ccccc1)NCC(O)c1ccc(O)c(NS(C)(=O)=O)c1 [Zinterol hydrochloride] was tested. Which cell viability did it give?
A: > 100%

Q: For `CN(CCOc1ccc(Cc2sc(O)nc2O)cc1)c1ccccn1` [Rosiglitazone] + c1cc(-c2cnn3cc(-c4ccc(OCCN5CCCCC5)cc4)cnc23)ccn1 [Dorsomorphin], which cell viability is on record?
A: > 100%

same assay, conditions: drug1 concentration 5 nM; drug2 concentration 100 nM; 72 h

Q: For `O=C(O)CC[N+](=O)[O-]` [3-nitropropionic acid] + CCn1c(=Cc2cccc[n+]2CC)sc(=C2Sc3ccccc3N2C)c1=O [MKT 077], which cell viability is on record?
A: 78.1%

Q: Which cell viability does the source give for `CCn1c(=Cc2cccc[n+]2CC)sc(=C2Sc3ccccc3N2C)c1=O` [MKT 077] + CN(C)CCNC(=O)c1cccn2c(=O)c3cc4ccccc4cc3nc12 [Bmh-21] here?
A: > 100%

Q: Which cell viability does the source give for `CN(CCOc1ccc(Cc2sc(O)nc2O)cc1)c1ccccn1` [Rosiglitazone] + CC(C)(Cc1ccccc1)NCC(O)c1ccc(O)c(NS(C)(=O)=O)c1 [Zinterol hydrochloride] here?
A: > 100%

Q: With `CN(CCOc1ccc(Cc2sc(O)nc2O)cc1)c1ccccn1` [Rosiglitazone] + c1cc(-c2cnn3cc(-c4ccc(OCCN5CCCCC5)cc4)cnc23)ccn1 [Dorsomorphin] as the molecule, how does the cell viability read?
A: 99.4%

same assay, conditions: drug1 concentration 5 nM; drug2 concentration 500 nM; 72 h

Q: `O=C(O)CC[N+](=O)[O-]` [3-nitropropionic acid] + CCn1c(=Cc2cccc[n+]2CC)sc(=C2Sc3ccccc3N2C)c1=O [MKT 077] was tested. Which cell viability did it give?
A: > 100%

Q: Which cell viability does the source give for `CCn1c(=Cc2cccc[n+]2CC)sc(=C2Sc3ccccc3N2C)c1=O` [MKT 077] + CN(C)CCNC(=O)c1cccn2c(=O)c3cc4ccccc4cc3nc12 [Bmh-21] here?
A: 4.65%

Q: With `CN(CCOc1ccc(Cc2sc(O)nc2O)cc1)c1ccccn1` [Rosiglitazone] + CC(C)(Cc1ccccc1)NCC(O)c1ccc(O)c(NS(C)(=O)=O)c1 [Zinterol hydrochloride] as the molecule, how does the cell viability read?
A: > 100%

Q: For `CN(CCOc1ccc(Cc2sc(O)nc2O)cc1)c1ccccn1` [Rosiglitazone] + c1cc(-c2cnn3cc(-c4ccc(OCCN5CCCCC5)cc4)cnc23)ccn1 [Dorsomorphin], which cell viability is on record?
A: > 100%

same assay, conditions: drug1 concentration 5 nM; drug2 concentration 1000 nM; 72 h

Q: For `O=C(O)CC[N+](=O)[O-]` [3-nitropropionic acid] + CCn1c(=Cc2cccc[n+]2CC)sc(=C2Sc3ccccc3N2C)c1=O [MKT 077], which cell viability is on record?
A: > 100%

Q: With `CCn1c(=Cc2cccc[n+]2CC)sc(=C2Sc3ccccc3N2C)c1=O` [MKT 077] + CN(C)CCNC(=O)c1cccn2c(=O)c3cc4ccccc4cc3nc12 [Bmh-21] as the molecule, how does the cell viability read?
A: 0.56%
